This data set can be described thus: Solubility of the catalyst. It is filed as physicochemical. As to conditions: ambient temperature (25° C.).

Take `CC(C)C/C(=C/C(=O)C(C)(C)C)[O][Zn][O]/C(=C\C(=O)C(C)(C)C)CC(C)C` [Catalyst (6), zinc bis(2,2,7-trimethyl-3,5-octanedionate)]: the solubility result was “soluble in organic solvents, even in alkanes, and in silicone oils”.

For the origin of these results see patent US20110305911A1, “ARTICLE HAVING ANTIFOULING PROPERTIES AND INTENDED TO BE USED IN AQUATIC APPLICATIONS, PARTICULARLY MARINE APPLICATIONS” (BLUESTAR SILICONES FRANCE, priority 2008, published 2011).
